Reference: the NIST ThermoML archive (doi:10.1021/acs.jced.5b00503)

Key:
[1] = 101 kPa, Liquid, Falling or rolling sphere viscometry
[2] = xn = mol fraction of the nth substance listed; conditions: 101 kPa, Liquid, Falling or rolling sphere viscometry

CCCCCC[n+]1ccn(C)c1.O=S(=O)([N-]S(=O)(=O)C(F)(F)F)C(F)(F)F
[1]
Conditions | viscosity [mPa·s]
288.2 K | 117.8
298.2 K | 70.4
308.2 K | 45.4
318.2 K | 31.23

CCCCCC[n+]1ccn(C)c1.O=S(=O)([N-]S(=O)(=O)C(F)(F)F)C(F)(F)F + ClC(Cl)Cl
viscosity [mPa·s], [2]
Conditions | 288.2 K | 298.2 K | 308.2 K | 318.2 K
x1 = 0.074 | 1.701 | 1.462 | 1.265 | 1.104
x1 = 0.186 | 4.556 | 3.667 | 3.002 | 2.5
x1 = 0.266 | 8.57 | 6.63 | 5.25 | 4.29
x1 = 0.418 | 20.36 | 14.63 | 10.96 | 8.5
x1 = 0.511 | 30.16 | 20.92 | 15.19 | 11.49
x1 = 0.565 | 38 | 25.55 | 18.18 | 13.58
x1 = 0.651 | 50.6 | 33.3 | 23.1 | 16.97
x1 = 0.707 | 60.6 | 38.9 | 26.6 | 19.16
x1 = 0.805 | 78.4 | 49.6 | 33.7 | 24
x1 = 0.906 | 95.7 | 59.1 | 39.5 | 27.7
x1 = 1 | 117.8 | 70.4 | 45.4 | 31.23
